Patent publication US7626026B2, “Pyrrolo-indole and pyrrolo-quinoline derivatives as prodrugs for tumour treatment” (University of Bradford, priority 2001, dated 2009)
Marks after values point to notes of the source that are not given here.

Tested on: Chinese Hamster Ovary (CHO) cell
Test: MTT cytotoxicity in CHO cells, with and without activation by NADPH-supplemented rat liver microsomes
Format: cell-based
Conditions: for IC50: Cricetulus griseus, CHO, cells incubated 24 hours, MTT, mean±sd for three experiments
Protocol: Test compound (synthesised in example 3) activation by CYP enzymes was carried out using NADPH supplemented rat liver microsomes; Incubation mixtures comprised microsomal protein (1 mg/ml), reduced-nicotinamide adenine dinucleotide phosphate (NADPH, 10 mM) and phosphate buffer (pH7.4, 100 mM). Test compound (0.01-100 μM final concentration) in DMSO (20 μl) was added to the microsomal incubation mixtures (0.5 ml) and incubated for 60 min at 37C. Control incubates contained test compound and microsomal incubation mixture terminated at 0 time. All incubations were terminated by addition of an equal volume of ice-cold acetonitrile and microfuged for 3 min. Aliquots of the supernatant were added to cells in culture.
Chinese Hamster Ovary (CHO) cell were grown in MEM supplemented with. 10% dialysed FBS and G418 (400 μg/ml). All cells were seeded at an initial density of 1000 cells/well in 96-well-plates, incubation at 37° C. for 24 hours. Aliquots (0.1 ml) of the test compound/microsomal/acetonitrile supernatnant was then added to the CHO cells. Cells were then incubated for 24 hours at 37° C., 5% CO2. After this time period MTT (50 μl; 2 mg/ml stock solution) was added to each well and cells were incubated for a further 4 hours. During this time period MTT, a hydrogen acceptor tetrazolium salt, is reduced to formazan dye by mitochondrial dehydrogenase of viable cells. The media was aspirated from cells and DMSO (100 μl/well) added to solubilise the coloured formazan dye. Absorbance of the formazan dye in the 96-well-plates was then determined at 550 nm. The effect of microsomal activation by the test compound on the arrest of CHO cell growth could be determined by comparing the IC50 (concentration that inhibited cell growth by 50%) with and without microsomal incubation.
Effect of compound 3.8 and its metabolism (activation) product on the survival of Chinese hamster ovary cells in culture. Cells were incubated for 24 hours with supernatants from reaction mixtures of compound 3.8 with NADPH fortified rat liver microsomes. […] Values are expressed as the mean±sd for three experiments. […]

`CCOC(=O)c1cc2c3c(ccc2[nH]1)N(C(=O)c1cc2cc(OC)ccc2[nH]1)CC3CCl` (stereo not drawn) [3.8, Ethyl 1-(chloromethyl)-3-((5-methoxy-1H-indol-2-yl)carbonyl)-1,2-dihydro-3H-pyrrolo[3,2-e]indole-7-carboxylate] was tested, and the “AF (activity factor, ratio of IC50 cytotoxicity values obtained for ± activation)” value (CHO cells, IC50 −activation / IC50 +activation) was 71.7*, the IC50 (control incubate terminated at 0 time (no microsomal activation)) was 4300 ± 410 nM and the IC50 (supernatant after 60 min incubation at 37C with NADPH-fortified rat liver microsomes) was 60 ± 20 nM.
